Test: Human HepG2 cell viability assay in 384 well format
Format: toxicity, cell-based
Parameters: dose 125 nL, time 70.5 hour; concentration not given beside the values
Settings: HepG2 cells, read-out: Inhibition

SMILES | cytotoxicity at 70.5 h [%]
Cc1noc(CCCC(=O)NCC(c2ccco2)N2CCCCC2)n1 (centres undefined) | -3
CC(c1nccs1)N(C)C(=O)c1cc(CN(C)Cc2ccccc2)on1 (centres undefined) | 0.573
COc1ccc(CN2CCC3(CC2)CN(c2ccccn2)CCO3)cc1 | 2.33
CNC(=O)c1sc(C(NC(=O)c2ccccc2)C2CC2)nc1C (centres undefined) | -4.95
O=C(O)c1ccc(S(=O)(=O)Nc2cccc(CC(F)(F)F)c2)c(F)c1 | -7.64
COc1cccc(N2CCN(Cc3ccc(NC(C)=O)cc3)CC2=O)c1 | 9.59
O=C(O)c1cc2c(nc1-c1ccoc1)CCN(CC1CCOC1)CC2 (centres undefined) | -13.1
Cc1cc2cc(CNC3CCN(CC(=O)N(C)C)CC3)oc2cc1C | -3.5
O=C(c1cn(CCN2CCCCC2)nn1)N1CCCO1 | -6.13
CC(C)Nc1ncccc1C(=O)NCc1cnc(N(C)C)n1C | -14.4
COc1cc(C(=O)NS(=O)(=O)c2ccc(C#N)cc2)ccc1C | -5.03
CCCc1nc(CN2CCCC2Cn2cccn2)cs1 (centres undefined) | -11.6
COc1ccc(C)cc1NC(=O)Nc1cnc(N2CCOCC2)nc1 | -0.928
Cc1nc(C2CCN(C(=O)c3ccn(C)n3)CC2)c2sccn12 | -5.98
O=C1N(CCc2ccccc2)CCCC1(O)CNCc1ccc(F)cc1 (centres undefined) | 6.09
CC(C)OC(=O)N1CCC(c2nnc(Cn3ccnc3)n2C)CC1 | 20.7
CCC(=O)N1CCN(C(=O)CCn2cccn2)CC1 | -7.9
CC(C)(C)c1csc(CN2CCN(S(=O)(=O)c3cccnc3)CC2)n1 | -14.8
O=C(CSc1ncccn1)N1C[C@H]2CC[C@@H]1CN(Cc1ccncc1)C2 | -0.441
Cc1cc(CN2CCC=C(CN(C)C(=O)c3ccco3)C2)no1 | -7.11
CS(=O)(=O)c1cccc(C(=O)N2CCCC(n3cccn3)C2)c1 (centres undefined) | 2.98
COc1cc(N2CCN(Cc3ccsc3)C(CCO)C2)nc(N)n1 (centres undefined) | 9.1
O=C(NCCN1CCOCC1)c1cc(Cl)c2c(c1)OCCCO2 | -5.1

SMILES | cytotoxicity at 70.5 h [%]
CCn1cnnc1C1CCN(C(=O)COc2ccc(Cl)cc2)CC1 | -9.99
CCC(C)CS(=O)(=O)NCCc1csc(N2CCCC2)n1 (centres undefined) | -1.21
O=C(NCCCN1CCOCC1)c1ccn(-c2ccc3ccccn23)n1 | 23.5
Cc1nccn1-c1cc(CNC(=O)C2CCCO2)ccn1 (centres undefined) | -7.47
Clc1cc(N2CCC(N3CCCC3)CC2)nc2[nH]ccc12 | -2.57
CC(C)(C)NC(=O)Cn1c(=O)n(Cc2ccco2)c2ncccc21 | -3.69
COCc1ccccc1C(=O)N1CCCC(n2nc(C)cc2C)C1 (centres undefined) | 24.9
CN1CCC(N(Cc2ccncc2)Cc2nc3c(s2)CCCC3)CC1 | -11.2
CC(=O)c1ccc(C(=O)NCc2ccnc(N(C)C)n2)cc1 | 5.65
CC(C)Sc1ncccc1C(=O)NCc1ccc(CS(C)(=O)=O)cc1 | 6.05
CCn1cnnc1C1CCN(C(=O)c2cccc3c2ccn3C)CC1 | 6.06
O=C(C1CCOC1)N1CCc2ncc(CNc3ccccn3)n2CC1 (centres undefined) | 0.605
CN(C)CC1(O)CCCN(Cc2cnc(-c3ccco3)nc2)CC1 (centres undefined) | -8.26
O=C(NC1CCCC1)c1cc(Sc2ncccn2)ccn1 | -13.6
Cc1noc(CN(C)CC2CCCN(CCc3ccc(Cl)cc3)C2)n1 (centres undefined) | -11.4
COCCNC(=O)NCC(C)c1ccccc1OC (centres undefined) | -8.45
COCCO[C@H]1CCN(C(=O)c2ccsc2)[C@H]1Cc1cnn(C)c1 | -11.9
CC(O)CN1CCN(C(=O)c2cnc(OC(C)C)c(Cl)c2)CC1 (centres undefined) | 5
Cc1nn(C)c(Cl)c1C1CCCN1CC(=O)NC1CCCC1 (centres undefined) | 2.37
CCN(Cc1nnnn1C1CC1)c1cc(C)ccc1C | -2.4
CCC(C(=O)NCc1cc(N2CCOCC2)ncn1)n1cccn1 (centres undefined) | -1.38
c1cnnc(N2CCCC(NCc3ccncc3)C2)c1 (centres undefined) | -4.07
Cc1cnn(CC2CCCN2Cc2coc(-c3cccc(F)c3)n2)c1 (centres undefined) | -113

SMILES | cytotoxicity at 70.5 h [%]
O=S(=O)(c1ccccc1F)N1CCCCC1c1cc[nH]n1 (centres undefined) | -5
c1ccc(Cn2cc(CNc3ncnc4c3CCNCC4)cn2)cc1 | -15
O=C(NCc1ccc2nonc2c1)C1CCN(C(=O)C2CCC2)CC1 | -6.22
COCCn1cnc2ccc(NC(=O)c3ccc(OC)cc3)cc2c1=O | -9.11
O=C(NC1CCN(Cc2ccc(F)cc2)CC1)c1ccc2c(c1)CCC2 | -6.88
COc1cccc(C(O)CNC(=O)CC2CCCCC2)c1 (centres undefined) | -8.34
Cc1cc(C)n(CC2CCCN2C(=O)c2c[nH]c(=O)c(Cl)c2)n1 (centres undefined) | -11.8
COCCNC(=O)c1cc(COc2cncc(Cl)c2)on1 | -3.27
CNC(=O)CS(=O)(=O)Cc1coc(-c2ccc(OC)cc2)n1 | -12.7
N#Cc1c2n(c3c(N)ncnc13)CCCCC2 | 16.8
C1CCC(CN2Cc3nnn(CC4CC4)c3C(COCC3CC3)C2)C1 (centres undefined) | -8.05
Cc1ccc(-c2ccnc(N3CCC4(CC3)CNC(=O)C4)n2)c(C)n1 | 15.1
CN(C)CCOCC1CN(Cc2ccccn2)Cc2nnn(C)c21 (centres undefined) | 0.965
Nc1ccc(-c2cc(O)cc(CCC3CCCCN3)c2)cn1 (centres undefined) | -5.09
Cc1cn(CC(=O)NC2CCC3(CC2)OCCO3)c2ccccc12 | -6.58
COCCNC(=O)[C@H]1CN(c2ncccn2)C[C@H]2OCC[C@@H]12 | -15.6
CNC(=O)c1cc2c(nc1NCC(C)C)CCN(S(=O)(=O)C1CC1)CC2 | -6.3
Cc1c(CN2CCCC(n3c(=O)oc4ccccc43)C2)cnn1C (centres undefined) | 17.2
CC(=O)c1cccc(NCC(=O)NC(N)=O)c1 | 27.4
COc1cc2c(nn1)CCN(Cc1noc(-c3ccccc3)n1)C2 | 2.93
Cc1nn(C)c(C)c1C1CCCN1C(=O)c1ccc2c(c1)OCCO2 (centres undefined) | -7.1
Cc1noc(C)c1CN(C)CC(c1cccs1)N1CCOCC1 (centres undefined) | -4.33
CC(C)(C)S(=O)(=O)c1ccc(N2CCN(c3ccccc3)CC2)nn1 | -8.92

SMILES | cytotoxicity at 70.5 h [%]
CN(CCc1nc2ccccc2c(=O)[nH]1)CCC(F)(F)F | -6.6
COCC(=O)N1CCC(c2nccn2CC2CC2)CC1 | -8.88
CS(=O)(=O)N1CCC(NC(=O)COc2ccc(Br)cc2Cl)CC1 | 30.2
CSc1ccc(-c2noc(CN(Cc3ccccc3)C(C)C)n2)cc1 | -6.81
COCC(=O)Nc1nccn1Cc1ccc(Br)cc1 | -0.968
CC(C)c1nccn1C1CCCN(C(=O)c2ccc3nncn3c2)C1 (centres undefined) | 13
Cc1nn(C)c(Cl)c1C1CCCN1Cc1nc(-c2ccco2)no1 (centres undefined) | -6.17
CC(=O)NC[C@H]1COCc2nc3cc(S(C)(=O)=O)ccc3n21 | -0.348
CCN(c1ccccc1)S(=O)(=O)c1cc(C(=O)O)cc2c1CCC2 | 21.2
CCc1c(C(=O)N2CCC(CC(N)=O)CC2)cnn1C(C)(C)C | -3.41
CN(C)C1CCN(C(=O)c2n[nH]c3c2CCN(CC2CCC2)C3)CC1 | 14.2
CCOCCN1CCN(CCOCC(F)(F)F)CC1 | -8.54
O=C(CSC1CCCC1)N1CCN(C(=O)C2CC2c2ccccc2)CC1 (centres undefined) | -3.24
c1cncc(CN(CCCn2ccnc2)CC2CCOC2)c1 (centres undefined) | -1.27
CCC(C)NC(=O)CS(=O)(=O)Cc1cc(C)ccc1C (centres undefined) | -11.2
CC(C(=O)O)n1nc(C(F)(F)F)c(Cl)c1C1CC1 (centres undefined) | 5.37
c1ccc(COc2ccccc2CNC2CCc3ncnn3C2)cc1 (centres undefined) | -6.49
Cc1cc(C)n(CC2CN(CC(=O)NCc3ccccn3)CCO2)n1 (centres undefined) | -2.74
CC(=O)N(Cc1ncc(C)o1)C1CCN(CCc2ccncc2)C1 (centres undefined) | 7.37
CCN(Cc1nonc1C)C(=O)Cn1nc(C(F)(F)F)cc1C | -9.27
O=C(CCc1cccc(Cl)c1Cl)N1CCOCC1c1ncon1 (centres undefined) | -1.88
COCCCC(=O)Nc1[nH]nc(-c2ccncc2)c1C | -3.19
CC(C)c1nnc(NC(=O)NC2CCOc3ccccc32)s1 (centres undefined) | -2.44

SMILES | cytotoxicity at 70.5 h [%]
OC1(c2ccccc2F)CCN(Cc2ccccc2N2CCCC2)CC1 | 12.6
Cc1cc(CN2CCN(Cc3ccc(C#N)cc3F)CC2)no1 | 1.27
CN(C)[C@H]1CCCCN(C(=O)c2cccc(-c3cccc(F)c3)c2)C1 | -4.14
Cc1cccc(CN2C(=O)CC[C@@H]3[C@H]2CCN3Cc2cccnc2)n1 | -0.831
CC(C)(O)CCc1cccc(C(=O)NCc2nccs2)c1 | 3.29
COc1ccc(-c2nc(C(=O)NCC3CCOC3)cs2)cc1OC (centres undefined) | -7.66
c1cncc(CN2CCCC(c3nnc(-c4cnccn4)o3)C2)c1 (centres undefined) | -14
CCN1CCC2(CC1)CC(NC(=O)c1c[nH]cn1)c1ccccc1O2 (centres undefined) | -6.71
Cc1nc(C2CCCN(C(=O)c3cccc(S(C)(=O)=O)c3)C2)no1 (centres undefined) | -9.98
CCCc1cc(C(=O)N2CCCN(c3cccnn3)CC2)[nH]n1 | -0.666
COc1ccc(CNC(=O)Cc2csc(C(C)=O)c2)cc1 | -8.65
COc1cc(F)c(NCc2nc3ccccc3n2C)cc1OC | -15.9
O=C(Nc1ccccn1)C1CCN(C(=O)COc2ccccc2F)C1 (centres undefined) | 18.6
CCOC(=O)NCc1nn(CCN2CCCC2)c(=O)c2ccccc12 | 1.9
Cc1ccc(CN2CCC3(CC2)CC(NC(=O)c2ccccn2)CO3)o1 (centres undefined) | -2.22
CN(Cc1cc(Br)c2c(c1)OCO2)Cc1cscn1 | -14.1
COc1c(C)cnc(CN(C)C(=O)c2cccc(NC(N)=O)c2)c1C | -2.3
O=C(CCCc1nc(C2CC2)no1)N1CCCC(c2ccn[nH]2)C1 (centres undefined) | -7.72
Cc1nc(C)c2c(n1)CCN(C(=O)C1(C#N)CC1)CC2 | -1.89
CC(C)c1cc(C(=O)N2CCC3(CCc4ccccc4C(=O)N3)C2)on1 (centres undefined) | -2.23
CCc1ccc(CN(C/C=C/c2ccccc2)CCOC)nc1 | -2.77
COc1ccc(CNC(C)Cn2cccn2)c(OC)c1OC (centres undefined) | -7.21

From ChEMBL document CHEMBL3507680, “University of Dundee, Gates Library screen for HepG2 cell viability”
